Where two headings read alike, the source gives them in different places. Values belong to the compound of their own block, whether it stands above or below them.
Columns and labels:
[1] = system: CYP3A4; details: cited from earlier work
[2] = design: method as in Chen et al., J Clin Pharmacol. 2013;53(7):721-30; details: fixed, ref Chen et al., J Clin Pharmacol. 2013;53(7):721-30, cited from earlier work
[3] = Clinical and laboratory adverse events (CTCAE v5.0) in relation to Ruxolitinib trough serum concentration; format: in vivo, human; details: for Mean trough concentration in group: logistic regression on at least three AE
Experimental: Adverse events (AE) were registered by questioning patients at each sampling time point. Patients were specifically asked for AE occurring in ≥ 1/100 patients according to the prescribing information. Clinical AE were graded according to the […] (CTCAE) Version 5.0 [26]. Further recorded patient data included age, sex, height, weight, ethnicity, smoking status, dosing regimen, and comedication. Relevant laboratory parameters were recorded in parallel to blood sampling (estimated glomerular filtration rate (eGFR), serum creatinine, serum albumin, total cholesterol, total bilirubin, hemoglobin, white blood cell count, absolute neutrophil count, platelet count, aspartate, and alanine aminotransferase).
(§1) Data were collected and processed using Microsoft Excel 2016 Version 16.0 (Microsoft Corporation, Redmond, WA, USA). Statistical calculations and visualization of results were performed with R Studio Version 1.2.5042 (RStudio Incorporation, Boston, MA, USA) and running R version 4.0.5 (R Foundation for Statistical Computing, Vienna, Austria, 2020). […] To fully display the degree of variability, concentrations were also summarized across all patients, stratified by dosing scheme. Pairwise comparisons were performed using Wilcoxon rank-sum test. Wilcoxon-signed-rank test was used for […] samples. For comparisons between more than two groups the Kruskal–Wallis one-way analysis of variance combined with Dunn’s test post hoc was used. Spearman’s correlation was used for analysis of AE. Logistic regression followed by receiver operator characteristic (ROC) analysis was used to evaluate the risk for the occurrence of AE of any grade or type on a visit in relation to the corresponding trough concentration on that visit. Due to the explorative nature of the study, p values obtained from multiple comparisons were not corrected for multiple testing. A p value < 0.05 was considered statistically significant. A Spearman’s rho (ρ) correlation was defined as follows: 0 to 0.3 or 0 to −0.3, weak; 0.3 to 0.7 or −0.3 to −0.7, moderate and 0.7 to 1 or −0.7 to −1, strong.

[4] = Observed concentrations versus concentrations simulated with Chen et al.'s popPK model for myelofibrosis patients; design: species or system human; details: simulated with Chen et al.'s MF model, lower than observed
Excerpt: The model published by Chen et al. was also encoded in R using the mrgsolve package for R [30]. Applying patient covariates and dosing schemes, the model was used to predict every observed concentration of every patient included in our study based on individual patient covariates and dosing data.

[5] = Steady state Ruxolitinib trough serum concentrations in GvHD patients in clinical routine (LC-MS/MS); format: in vivo, human
Excerpt: Patients were enrolled in a noninterventional prospective clinical trial at the University Hospital of Würzburg between February 2019 and February 2021. The study was approved by the Ethics Commission of the University of Würzburg (ref 199/18-am). All performed procedures were in accordance with the Declaration of Helsinki. Written informed consent was obtained from all patients. […] After enrollment blood samples and patient data were collected regularly during routine outpatient visits for 1 year. Treatment was managed at the discretion of the treating physician.
Serum samples were collected at each outpatient visit during routine blood withdrawal. Patients were asked to take Ruxolitinib after blood withdrawal. Date and time of last administration and blood withdrawal were recorded. Samples obtained at least 48 h after initiation or modification of therapy were considered steady state samples [27]. Samples obtained between eight and 30 h after last administration (depending on dosing scheme) were considered trough levels.
In brief, after protein precipitation with acetonitrile separation was achieved on a Waters XBridge Phenyl 3.5 µm (2.1 × 50 mm) column using gradient elution (flow rate 400 μL/min). […] Lower level of quantification (LLOQ) of the method was 2 ng/mL. Concentrations < LLOQ were excluded from further statistical analysis but included as censored data (between 0 ng/mL and LLOQ) in the popPK analysis.
as §1

[6] = Exploratory population pharmacokinetic (popPK) analysis in GvHD patients; format: in vivo, human; details: for RUV b (residual unexplained variability, proportional error) / ωCL/F (inter-individual variability on CL/F) / ωV (inter-individual variability on Vc/F): as standard deviation of normal distribution
Experimental: An exploratory popPK analysis was conducted to identify relevant covariates influencing drug exposure, to predict the influence of strong CYP3A4 or CYP2C9 inhibitors or PPI and to generate population estimates for apparent oral clearance (CL/F) and apparent central volume of distribution (Vc/F) as classical statistical analysis was not suitable due to the unbalanced number of samples per patient. The analysis was conducted on the individual raw data (as opposed to the descriptive statistics) using Monolix 2020R1 (Antony, France: Lixoft SAS, 2020) and was based on a previously published popPK model by Chen et al. investigating pharmacokinetics in patients with primary and secondary myelofibrosis (MF).
Oral pharmacokinetics were described by a two-compartment model using first order absorption with lag time and linear elimination from the first compartment only. The population mean values for CL/F and Vc/F were re-estimated using the SAEM algorithm implemented in Monolix. The remaining parameters, except for the covariate model, were fixed to the original values. As in the original model, all pharmacokinetic parameters were assumed to be log-normally distributed. Dichotomous categorical covariates, were implemented as follows:1 logCL/Ftypical=logCL/Fpop+β^COV with COV being 0 or 1 encoding for the presence or absence of covariate effect.
Continuous covariates were scaled to the population mean values using the following exponential relationship:2 logCL/Ftypical=logCL/Fpop+β∙COV with COV being the value of individual covariate, e.g., scaled eGFR = eGFR/70.2.
Inter-individual variability (η) was implemented for CL/F and Vc/F according to: 3 logCL/Find=logCL/Ftypical+ηind,CLFwithηCL/F∼N0,ωCL/F2logVc/Find=logVc/Ftypical+ηind,Vc/FwithηVc/F∼N0,ωVc/F2
Residual unexplained variability (RUV) was modeled using a proportional error model represented by the parameter b and the following equation:4 Concobs=Concpred∙1+ϵwithϵ∼N(0,b^2)
A stepwise approach was used to develop the covariate model. Covariate effects were assessed using the Wald test and by comparing objective function values (OFV, which is the −2-log-likelihood) and derived descriptors such as Bayesian Information Criteria (BIC), corrected Bayesian Information Criteria (cBIC), and Akaike Information Criteria (AIC). The criterion for forward inclusion was an improvement of the OFV (p ≤ 0.1). In the backward elimination, a limit for the p value of < 0.05 was applied. The following covariates were tested: the presence of strong or moderate CYP3A4 or CYP2C9 inhibitors on CL/F, the presence of PPI on F (as relative bioavailability), aspartate aminotransferase (AST) on CL/F, total body weight on Vc/F, eGFR on CL/F, sex on CL/F, and smoking habit on CL/F.

[7] = cited from earlier work
[8] = daily dose 5-< 20 mg, 51 samples
[9] = daily dose > 20-40 mg, 3 samples
[10] = popPK analysis in patients with aGvHD

Structure (SMILES): CC[C@H]1OC(=O)[C@H](C)[C@@H](O[C@H]2C[C@@](C)(OC)[C@@H](O)[C@H](C)O2)[C@H](C)[C@@H](O[C@@H]2O[C@H](C)C[C@H](N(C)C)[C@H]2O)[C@](C)(O)C[C@@H](C)CN(C)[C@H](C)[C@@H](O)[C@]1(C)O [Azithromycin]
CYP3A4 (inhibitor / inducer) [1]: inhibitor

Structure (SMILES): CN(C)C(=O)C(CCN1CCC(O)(c2ccc(Cl)cc2)CC1)(c1ccccc1)c1ccccc1 [Loperamide]
CYP3A4 (inhibitor / inducer) [1]: inhibitor
CYP3A4 Strength [1]: strong

Structure (SMILES): C=C[C@H]1C[N@@]2CC[C@H]1C[C@H]2[C@H](O)c1ccnc2ccc(OC)cc12 [Quinine]
CYP3A4 (inhibitor / inducer) [1]: inducer / inhibitor

Median paired difference between observed and simulated serum concentrations ([4]; non-trough concentrations): 64.9 ng/mL
Median paired difference between observed and simulated serum concentrations ([4]; trough concentrations): 27.1 ng/mL
Range of individual mean trough serum concentrations ([5]; 20 mg daily, n = 20 individuals): 5.6 to 99.8 ng/mL
Median of individual mean trough serum concentrations ([5]; 20 mg daily, steady state, n = 20 individuals): 39.9 ng/mL
Range of individual mean trough serum concentrations ([5]; 5-< 20 mg daily, n = 8 individuals): 7.7 to 46.8 ng/mL
Median of individual mean trough serum concentrations ([5]; 5-< 20 mg daily, steady state, n = 8 individuals): 26.2 ng/mL
Median of individual mean trough serum concentrations ([5]; > 20-40 mg daily, steady state, n = 2 individuals): 15 ng/mL
Steady state trough serum concentration of all samples across all individuals, Median ([5]; daily dose 20 mg, 120 samples): 40.5 ng/mL
Steady state trough serum concentration of all samples across all individuals, Range ([5]; daily dose 20 mg, 120 samples): 2.7 to 229 ng/mL
Steady state trough serum concentration of all samples across all individuals, Median [5, 8]: 17.5 ng/mL
Steady state trough serum concentration of all samples across all individuals, Range [5, 8]: 2.2 to 155 ng/mL
Steady state trough serum concentration of all samples across all individuals, Median [5, 9]: 25.1 ng/mL
Steady state trough serum concentration of all samples across all individuals, Range [5, 9]: 4.3 to 28.5 ng/mL
Steady state trough serum concentration of all samples across all individuals, Median ([5]; daily dose: All, 174 samples): 31.4 ng/mL
Steady state trough serum concentration of all samples across all individuals, Range ([5]; daily dose: All, 174 samples): 2.2 to 229 ng/mL
Trough concentrations under dual CYP inhibition ([5]; two patients receiving Posaconazole plus Atorvastatin or Amiodarone, mostly above this value): > 80 ng/mL
CL/F, population mean ([6]; base model): 8.55 L/h
Vc/F, population mean ([6]; base model): 64.8 L
RUV b (residual unexplained variability, proportional error) ([6]; base model): 0.50
ωCL/F (inter-individual variability on CL/F) ([6]; base model): 0.52
ωV (inter-individual variability on Vc/F) ([6]; base model): 0.25
Reduction of CL/F due to coadministration of at least one strong CYP3A4 or CYP2C9 inhibitor ([6]; compared to study patients not receiving relevant strong inhibitors, back transformation of β): 15%
Vc/F, population mean ([6]; covariate model): 61.9 L
βCL, STRONG_INH (covariate effect of strong CYP3A4 or CYP2C9 inhibitors on CL/F) ([6]; covariate model): -0.16
CL/F, population mean (typical CL/F) ([6]; covariate model including strong CYP inhibitors as covariate): 9.74 L/h
Share of inter-individual variability on CL/F explained by strong CYP3A4 or CYP2C9 inhibitors ([6]; covariate model vs base model): about 4%
RUV b (residual unexplained variability, proportional error) ([6]; covariate model): 0.50
ωCL/F (inter-individual variability on CL/F) ([6]; covariate model): 0.48
ωV (inter-individual variability on Vc/F) ([6]; covariate model): 0.29
Effect of simultaneous administration of PPI on Ruxolitinib exposure ([6]; covariate tested on relative bioavailability): did not affect Ruxolitinib exposure
Reduction of Ruxolitinib clearance in GvHD population ([6]; in comparison to the population of Chen et al. (patients with MF)): approximately 50%
Structure (SMILES): N#CC[C@H](C1CCCC1)n1cc(-c2ncnc3[nH]ccc23)cn1 [Ruxolitinib]
Q/F, population mean ([2]; base model): 2.53 L/h
TLag, population mean ([2]; base model): 0.0545 h
Vper/F, population mean ([2]; base model): 11.2 L
ka, population mean ([2]; base model): 4.12 h⁻¹
Q/F, population mean ([2]; covariate model): 2.53 L/h
TLag, population mean ([2]; covariate model): 0.0545 h
Vper/F, population mean ([2]; covariate model): 11.2 L
ka, population mean ([2]; covariate model): 4.12 h⁻¹
Clinical AE reported at the time of blood sampling, total number ([3]; 29 GvHD patients, all grades): 302
Clinical AE of grade 1, number ([3]; CTCAE grade 1): 250
Clinical AE of grade 2, number ([3]; CTCAE grade 2): 46
Share of all reported clinical AE of grade 3 ([3]; CTCAE grade 3): 2.0%
Clinical AE of grade 4 or 5 ([3]; CTCAE grade 4 or 5): no AE of grade 4 or 5
Average clinical AE reported at each sampling time point ([3]; grade 1): 0.95
Average clinical AE reported at each sampling time point ([3]; grade 2): 0.18
Average clinical AE reported at each sampling time point ([3]; grade 3): 0.02
Mean trough concentration in group ([3]; first of both groups as printed): 35.9 ng/mL
Mean trough concentration in group ([3]; second of both groups as printed): 62.8 ng/mL
Correlation between trough concentration and occurrence of grade 1 AE on the same visit ([3]; vertigo and cephalgia, p < 0.05): significant correlation
Effect of Ruxolitinib exposure on thrombocyte count, absolute neutrophil count and bilirubin ([3]; visual analysis of the data): did not reveal obvious effects
All trough serum concentrations at 5 mg daily ([5]; 5 mg daily, 3 of 4 samples < LLOQ (2 ng/mL)): ^aAll trough serum concentrations at 5 mg daily were ≤ 2.17 ng/mL (3 of 4 samples < LLOQ)
Median of individual mean trough serum concentrations ([5]; 20 mg daily, patients not requiring AE-related dose reduction, n = 18): 39.8 ng/mL
Median of individual mean trough serum concentrations ([5]; 20 mg daily, patients who had dose reductions for AE, before reduction, n = 4): 60.6 ng/mL
Median of mean trough concentrations ([5]; patients with AE-related dose reduction, after dose reduction, n = 4): 28.4 ng/mL
CL/F for a typical female ([7]; patients with MF): 17.7 L/h
CL/F for a typical male ([7]; patients with MF): 22.1 L/h
Lower oral clearance in comparison to MF patients [7, 10]: 66.7%
Slower rate of absorption in comparison to MF patients [7, 10]: 28%

— PMC8536600 (Cancer Chemotherapy and Pharmacology, 2021)
